Test results taken from patent US20250230193A1, “CYCLIC COMPOUND HAVING SELECTIVE KRAS INHIBITORY EFFECT ON HRAS AND NRAS” (CHUGAI SEIYAKU KABUSHIKI KAISHA, priority 2022, published 2025).

Assays:
[1] = molecular target: GDP-bound NRAS wild-type protein (Homo sapiens, UniProt P01111); test: Binding to NRAS by surface plasmon resonance (SPR), Single Cycle Kinetics; details: KD ratio, GDP-bound NRAS wild-type vs GDP-bound KRAS wild-type, SPR
[2] = molecular target: GDP-bound HRAS wild-type protein (Homo sapiens, UniProt P01112); test: Binding to HRAS by surface plasmon resonance (SPR), Single Cycle Kinetics; details: KD ratio, GDP-bound HRAS wild-type vs GDP-bound KRAS wild-type, SPR
GDP-bound HRAS wild-type protein, sequence (P01112 whole entry): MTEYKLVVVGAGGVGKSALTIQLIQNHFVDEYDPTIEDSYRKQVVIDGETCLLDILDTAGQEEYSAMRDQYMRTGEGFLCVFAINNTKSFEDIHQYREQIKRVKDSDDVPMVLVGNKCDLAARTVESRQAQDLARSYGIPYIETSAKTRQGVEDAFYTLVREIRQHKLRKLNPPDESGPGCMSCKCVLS

GDP-bound NRAS wild-type protein, sequence (P01111 whole entry): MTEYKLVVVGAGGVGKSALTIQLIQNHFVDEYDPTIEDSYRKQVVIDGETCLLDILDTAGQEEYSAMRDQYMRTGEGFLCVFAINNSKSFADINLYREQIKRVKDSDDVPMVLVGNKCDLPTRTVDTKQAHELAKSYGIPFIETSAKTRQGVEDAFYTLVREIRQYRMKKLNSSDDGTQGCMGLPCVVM

| Structure (SMILES) | NRAS/KRAS (ratio of KD value for NRAS to KD value for KRAS) [1] | HRAS/KRAS (ratio of KD value for HRAS to KD value for KRAS) [2] |
| --- | --- | --- |
| CCO[C@@H]1C[C@H]2C(=O)NC3(CC(C)(C)C3)C(=O)N(C)[C@@H](C3CCCC3)C(=O)N(C)[C@H](CC)CC(=O)N(C)[C@@H](CC)C(=O)N[C@@H]([C@@H](C)CC)C(=O)N(C)CC(=O)N(C)[C@H]3C/C=C\CCN(C3=O)[C@@H](Cc3ccc(C(F)(F)F)cc3)C(=O)N(C)CC(=O)N[C@@H](CCc3cc(F)c(C(F)(F)F)c(F)c3)C(=O)N2C1 [PP1623] | A (a compound having 10 or more and less than 20 is denoted as A) | A (a compound having 10 or more and less than 20 is denoted as A) |
| CCO[C@@H]1C[C@H]2C(=O)NC3(CCC3)C(=O)N(C)[C@@H](C(CC)CC)C(=O)N(C)[C@H](CC)CC(=O)N(C)[C@@H](CC)C(=O)N[C@@H]([C@@H](C)CC)C(=O)N(C)CC(=O)N(C)[C@H]3C/C=C\CCN(C3=O)[C@@H](Cc3ccc(C(F)(F)F)cc3)C(=O)N(C)CC(=O)N[C@@H](CCc3cc(F)c(C(F)(F)F)c(F)c3)C(=O)N2C1 [PP1624] | A (a compound having 10 or more and less than 20 is denoted as A) | A (a compound having 10 or more and less than 20 is denoted as A) |
| CCO[C@@H]1C[C@H]2C(=O)NC3(CCC3)C(=O)N(C)[C@@H](C3CCCC3)C(=O)N(C)[C@H](CC)CC(=O)N(C)[C@@H](CC)C(=O)N[C@@H]([C@@H](C)CC)C(=O)N(C)CC(=O)N(C)[C@H]3C/C=C\CCN(C3=O)[C@@H](Cc3ccc(C(F)(F)F)cc3)C(=O)N(C)CC(=O)N[C@@H](CCc3cc(F)c(C(F)(F)F)c(F)c3)C(=O)N2C1 [PP1625] | B (a compound having 3 or more and less than 10 is denoted as B) | B (a compound having 3 or more and less than 10 is denoted as B) |
| CCO[C@@H]1C[C@H]2C(=O)NC3(CC(F)(F)C3)C(=O)N(C)[C@@H](C(CC)CC)C(=O)N(C)[C@H](CC)CC(=O)N(C)[C@@H](CC)C(=O)N[C@@H]([C@@H](C)CC)C(=O)N(C)CC(=O)N(C)[C@H]3C/C=C\CCN(C3=O)[C@@H](Cc3ccc(C(F)(F)F)cc3)C(=O)N(C)CC(=O)N[C@@H](CCc3cc(F)c(C(F)(F)F)c(F)c3)C(=O)N2C1 [PP1626] | A (a compound having 10 or more and less than 20 is denoted as A) | A (a compound having 10 or more and less than 20 is denoted as A) |
| CCO[C@@H]1C[C@H]2C(=O)NC3(CC(F)(F)C3)C(=O)N(C)[C@@H](C3CCCC3)C(=O)N(C)[C@H](CC)CC(=O)N(C)[C@@H](CC)C(=O)N[C@@H]([C@@H](C)CC)C(=O)N(C)CC(=O)N(C)[C@H]3C/C=C\CCN(C3=O)[C@@H](Cc3ccc(C(F)(F)F)cc3)C(=O)N(C)CC(=O)N[C@@H](CCc3cc(F)c(C(F)(F)F)c(F)c3)C(=O)N2C1 [PP1627] | A (a compound having 10 or more and less than 20 is denoted as A) | A (a compound having 10 or more and less than 20 is denoted as A) |
| CCO[C@@H]1C[C@H]2C(=O)NC3(CC(C)(C)C3)C(=O)N(C)[C@@H](C(CC)CC)C(=O)N(C)[C@H](CC)CC(=O)N(C)[C@@H](CC3CC3)C(=O)N[C@@H]([C@@H](C)CC)C(=O)N(C)CC(=O)N(C)[C@H]3C/C=C\CCN(C3=O)[C@@H](Cc3ccc(C(F)(F)F)cc3)C(=O)N(C)CC(=O)N[C@@H](CCc3cc(F)c(C(F)(F)F)c(F)c3)C(=O)N2C1 [PP1628] | A (a compound having 10 or more and less than 20 is denoted as A) | A (a compound having 10 or more and less than 20 is denoted as A) |
| CCO[C@@H]1C[C@H]2C(=O)NC3(CC(C)(C)C3)C(=O)N(C)[C@@H](C3CCCC3)C(=O)N(C)[C@H](CC)CC(=O)N(C)[C@@H](CC3CC3)C(=O)N[C@@H]([C@@H](C)CC)C(=O)N(C)CC(=O)N(C)[C@H]3C/C=C\CCN(C3=O)[C@@H](Cc3ccc(C(F)(F)F)cc3)C(=O)N(C)CC(=O)N[C@@H](CCc3cc(F)c(C(F)(F)F)c(F)c3)C(=O)N2C1 [PP1629] | B (a compound having 3 or more and less than 10 is denoted as B) | B (a compound having 3 or more and less than 10 is denoted as B) |
| CCO[C@@H]1C[C@H]2C(=O)NC3(CCC3)C(=O)N(C)[C@@H](C(CC)CC)C(=O)N(C)[C@H](CC)CC(=O)N(C)[C@@H](CC3CC3)C(=O)N[C@@H]([C@@H](C)CC)C(=O)N(C)CC(=O)N(C)[C@H]3C/C=C\CCN(C3=O)[C@@H](Cc3ccc(C(F)(F)F)cc3)C(=O)N(C)CC(=O)N[C@@H](CCc3cc(F)c(C(F)(F)F)c(F)c3)C(=O)N2C1 [PP1630] | A (a compound having 10 or more and less than 20 is denoted as A) | A (a compound having 10 or more and less than 20 is denoted as A) |
| CCO[C@@H]1C[C@H]2C(=O)NC3(CC(F)(F)C3)C(=O)N(C)[C@@H](C(CC)CC)C(=O)N(C)[C@H](CC)CC(=O)N(C)[C@@H](CC3CC3)C(=O)N[C@@H]([C@@H](C)CC)C(=O)N(C)CC(=O)N(C)[C@H]3C/C=C\CCN(C3=O)[C@@H](Cc3ccc(C(F)(F)F)cc3)C(=O)N(C)CC(=O)N[C@@H](CCc3cc(F)c(C(F)(F)F)c(F)c3)C(=O)N2C1 [PP1632] | A (a compound having 10 or more and less than 20 is denoted as A) | A (a compound having 10 or more and less than 20 is denoted as A) |
| CCO[C@@H]1C[C@H]2C(=O)NC3(CC(F)(F)C3)C(=O)N(C)[C@@H](C3CCCC3)C(=O)N(C)[C@H](CC)CC(=O)N(C)[C@@H](CC3CC3)C(=O)N[C@@H]([C@@H](C)CC)C(=O)N(C)CC(=O)N(C)[C@H]3C/C=C\CCN(C3=O)[C@@H](Cc3ccc(C(F)(F)F)cc3)C(=O)N(C)CC(=O)N[C@@H](CCc3cc(F)c(C(F)(F)F)c(F)c3)C(=O)N2C1 [PP1633] | A (a compound having 10 or more and less than 20 is denoted as A) | B (a compound having 3 or more and less than 10 is denoted as B) |
| CCO[C@@H]1C[C@H]2C(=O)NC3(CC(C)(C)C3)C(=O)N(C)[C@@H](C(CC)CC)C(=O)N(C)[C@H](C3CCC3)CC(=O)N(C)[C@@H](CC3CC3)C(=O)N[C@@H]([C@@H](C)CC)C(=O)N(C)CC(=O)N(C)[C@H]3C/C=C\CCN(C3=O)[C@@H](Cc3ccc(C(F)(F)F)cc3)C(=O)N(C)CC(=O)N[C@@H](CCc3cc(F)c(C(F)(F)F)c(F)c3)C(=O)N2C1 [PP1634] | A (a compound having 10 or more and less than 20 is denoted as A) | A (a compound having 10 or more and less than 20 is denoted as A) |
| CCO[C@@H]1C[C@H]2C(=O)NC3(CC(C)(C)C3)C(=O)N(C)[C@@H](C3CCCC3)C(=O)N(C)[C@H](C3CCC3)CC(=O)N(C)[C@@H](CC3CC3)C(=O)N[C@@H]([C@@H](C)CC)C(=O)N(C)CC(=O)N(C)[C@H]3C/C=C\CCN(C3=O)[C@@H](Cc3ccc(C(F)(F)F)cc3)C(=O)N(C)CC(=O)N[C@@H](CCc3cc(F)c(C(F)(F)F)c(F)c3)C(=O)N2C1 [PP1635] | B (a compound having 3 or more and less than 10 is denoted as B) | A (a compound having 10 or more and less than 20 is denoted as A) |
| CCO[C@@H]1C[C@H]2C(=O)NC3(CCC3)C(=O)N(C)[C@@H](C(CC)CC)C(=O)N(C)[C@H](C3CCC3)CC(=O)N(C)[C@@H](CC3CC3)C(=O)N[C@@H]([C@@H](C)CC)C(=O)N(C)CC(=O)N(C)[C@H]3C/C=C\CCN(C3=O)[C@@H](Cc3ccc(C(F)(F)F)cc3)C(=O)N(C)CC(=O)N[C@@H](CCc3cc(F)c(C(F)(F)F)c(F)c3)C(=O)N2C1 [PP1636] | A (a compound having 10 or more and less than 20 is denoted as A) | A (a compound having 10 or more and less than 20 is denoted as A) |
| CCO[C@@H]1C[C@H]2C(=O)NC3(CCC3)C(=O)N(C)[C@@H](C3CCCC3)C(=O)N(C)[C@H](C3CCC3)CC(=O)N(C)[C@@H](CC3CC3)C(=O)N[C@@H]([C@@H](C)CC)C(=O)N(C)CC(=O)N(C)[C@H]3C/C=C\CCN(C3=O)[C@@H](Cc3ccc(C(F)(F)F)cc3)C(=O)N(C)CC(=O)N[C@@H](CCc3cc(F)c(C(F)(F)F)c(F)c3)C(=O)N2C1 [PP1637] | A (a compound having 10 or more and less than 20 is denoted as A) | A (a compound having 10 or more and less than 20 is denoted as A) |
| CCO[C@@H]1C[C@H]2C(=O)NC3(CC(F)(F)C3)C(=O)N(C)[C@@H](C3CCCC3)C(=O)N(C)[C@H](C3CCC3)CC(=O)N(C)[C@@H](CC3CC3)C(=O)N[C@@H]([C@@H](C)CC)C(=O)N(C)CC(=O)N(C)[C@H]3C/C=C\CCN(C3=O)[C@@H](Cc3ccc(C(F)(F)F)cc3)C(=O)N(C)CC(=O)N[C@@H](CCc3cc(F)c(C(F)(F)F)c(F)c3)C(=O)N2C1 [PP1639] | A (a compound having 10 or more and less than 20 is denoted as A) | A (a compound having 10 or more and less than 20 is denoted as A) |
| CCO[C@@H]1C[C@H]2C(=O)NC3(CC(C)(C)C3)C(=O)N(C)[C@@H](C3CCCC3)C(=O)N(C)[C@H](C(=O)N(C)C)CC(=O)N(C)[C@@H](C)C(=O)N[C@@H]([C@@H](C)CC)C(=O)N(C)CC(=O)N(C)[C@H]3C/C=C\CCN(C3=O)[C@@H](Cc3ccc(C(F)(F)F)cc3)C(=O)N(C)CC(=O)N[C@@H](CCc3cc(F)c(C(F)(F)F)c(F)c3)C(=O)N2C1 [PP1641] | A (a compound having 10 or more and less than 20 is denoted as A) | A (a compound having 10 or more and less than 20 is denoted as A) |
